These results are taken from patent US11098032B2, “Pyran dervatives as CYP11A1 (cytochrome P450 monooxygenase 11A1) inhibitors” (ORION CORPORATION, priority 2016, dated 2021).

This assay has as its target T1, CYP11A1 (Homo sapiens, UniProt P05108).
T1 construct: human H295R adrenocortical carcinoma cell line was used as source of enzyme; endogenous in cells; host or cells: H295R human adrenocortical carcinoma cells
T1 sequence (P05108 40-521): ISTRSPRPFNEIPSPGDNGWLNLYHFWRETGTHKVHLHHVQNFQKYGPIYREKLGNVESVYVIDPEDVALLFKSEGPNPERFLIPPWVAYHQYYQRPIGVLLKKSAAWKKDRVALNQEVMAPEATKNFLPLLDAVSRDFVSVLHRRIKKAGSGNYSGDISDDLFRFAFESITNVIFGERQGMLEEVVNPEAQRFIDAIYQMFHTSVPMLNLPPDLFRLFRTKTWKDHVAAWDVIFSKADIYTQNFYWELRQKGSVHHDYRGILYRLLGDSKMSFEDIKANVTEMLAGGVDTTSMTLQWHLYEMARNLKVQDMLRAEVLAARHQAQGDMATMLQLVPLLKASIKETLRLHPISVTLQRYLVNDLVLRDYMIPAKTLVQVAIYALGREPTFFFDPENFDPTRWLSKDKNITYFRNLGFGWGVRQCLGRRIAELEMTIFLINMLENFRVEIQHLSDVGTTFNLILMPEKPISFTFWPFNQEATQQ
Kind of assay: CYP11A1 inhibition: modified isocaproic acid release assay (IARA) in H295R cells. Format: cell-based. As to conditions: human H295R adrenocortical carcinoma cells treated three days, 3 nM [24,25-3H]-labelled cholesterol, 1% DMSO, 10 concentrations in duplicates; read-out: IC50 of the test compounds on CYP11A1 inhibition. The method, boiled down: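 Cholesterol side-chain cleavage followed as tritiated isocaproic acid in charcoal-extracted medium, counted by scintillation. Substrate was 3 nM [24,25-3H]-cholesterol on human H295R cells exposed for three days to ten compound concentrations (duplicates, 1% DMSO); IC50 derived.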
For `CN(C)C(=O)C1CCC(COc2coc(CN3Cc4ccccc4C3)cc2=O)CC1` (stereo not shown) [Compound 217, 4-(((6-(Isoindolin-2-ylmethyl)-4-oxo-4H-pyran-3-yl)oxy)methyl)-N,N-dimethyl-cyclohexane-1-carboxamide], the IC50 was under 150 nM.

On to `CS(=O)(=O)c1ccc(COc2coc(CN3Cc4ccc(Cl)cc4C3)cc2=O)cc1` [Compound 64, 2-((5-Chloroisoindolin-2-yl)methyl)-5-((4-(methylsulfonyl)benzyl)oxy)-4H-pyran-4-one], for which the IC50 is 150 to 300 nM.

`CCCC(=O)N1CCC(COc2coc(CN3Cc4ccccc4C3)cc2=O)CC1` [Compound 221, 5-((1-Butyrylpiperidin-4-yl)methoxy)-2-(isoindolin-2-ylmethyl)-4H-pyran-4-one]: the IC50 is under 150 nM. As for `O=c1cc(CN2Cc3ccccc3C2)occ1OCc1ccc(-c2ncco2)cc1` [Compound 109, 2-(Isoindolin-2-ylmethyl)-5-((4-(oxazol-2-yl)benzyl)oxy)-4H-pyran-4-one], the IC50 is under 150 nM. For the compound `CC(c1cc(=O)c(OCC2CCN(S(C)(=O)=O)CC2)co1)N1Cc2ccccc2C1` (stereo not shown) [Compound 195], the IC50 is under 150 nM. As for `O=c1cc(CN2Cc3ccccc3C2)occ1OCc1ccc(S(=O)(=O)N2CCC2)cc1` [Compound 9, 5-((4-(Azetidin-1-ylsulfonyl)benzyl)oxy)-2-(isoindolin-2-ylmethyl)-4H-pyran-4-one], the IC50 was in the range of 150 to 300 nM. As to `CC1c2ccccc2CN1Cc1cc(=O)c(OCc2ccc(C(=O)N(C)C)cc2)co1` (stereo not shown) [Compound 77, N,N-Dimethyl-4-(((6-((1-methylisoindolin-2-yl)methyl)-4-oxo-4H-pyran-3-yl)oxy)methyl)benzamide], the IC50 is 301 to 2000 nM. In the case of `COC(=O)c1ccc(COc2coc(CN3Cc4ccccc4C3)cc2=O)cc1` [Compound 60, Methyl 4-(((6-(isoindolin-2-ylmethyl)-4-oxo-4H-pyran-3-yl)oxy)methyl)benzoate], the IC50 is 301 to 2000 nM. In the case of `CC(C)S(=N)(=O)c1ccc(COc2coc(CN3Cc4ccccc4C3)cc2=O)cc1` (stereo not shown) [Compound 103, 2-(Isoindolin-2-ylmethyl)-5-((4-(propan-2-ylsulfonimidoyl)benzyl)oxy)-4H-pyran-4-one], the IC50 is under 150 nM. Under `O=c1cc(CN2Cc3ccccc3C2)occ1OCC1CCS(=O)(=O)CC1` [Compound 35, 5-((1,1-Dioxidotetrahydro-2H-thiopyran-4-yl)methoxy)-2-(isoindolin-2-yl-methyl)-4H-pyran-4-one] stands 301 to 2000 nM. Consider `CN(C)C(=O)c1ccc(COc2coc(CN3CCc4ccccc4C3)cc2=O)cc1F` [Compound 78, 4-(((6-((3,4-Dihydroisoquinolin-2(1H)-yl)methyl)-4-oxo-4H-pyran-3-yl)oxy)-methyl)-2-fluoro-N,N-dimethylbenzamide], for which the IC50 is 301 to 2000 nM.

Turning to `CN=S(C)(=O)c1ccc(COc2coc(CN3Cc4ccccc4C3)cc2=O)cc1` (stereo not shown) [Compound 92, 5-((4-(N,S-Dimethylsulfonimidoyl)benzyl)oxy)-2-(isoindolin-2-ylmethyl)-4H-pyran-4-one], the IC50 is under 150 nM. Under `CN(C)C(=O)N1CCC(COc2coc(CN3Cc4ccccc4C3)cc2=O)C1` (stereo not shown) [Compound 183, 3-(((6-(Isoindolin-2-ylmethyl)-4-oxo-4H-pyran-3-yl)oxy)methyl)-N,N-dimethyl-pyrrolidine-1-carboxamide] stands 301 to 2000 nM. Take `CS(=O)(=O)c1ccc(COc2coc(CN3Cc4cccc(Cl)c4C3)cc2=O)cc1` [Compound 281, 2-((4-Chloroisoindolin-2-yl)methyl)-5-((4-(methylsulfonyl)benzyl)oxy)-4H-pyran-4-one]: the IC50 fell in the range of 301 to 2000 nM.

Turning to `CN(C)S(=O)(=O)N1CCC(COc2coc(CN3Cc4ccccc4C3)cc2=O)CC1` [Compound 225, 4-(((6-(Isoindolin-2-ylmethyl)-4-oxo-4H-pyran-3-yl)oxy)methyl)-N,N-dimethyl-piperidine-1-sulfonamide], the IC50 is under 150 nM. As for `CC(C)(C)OC(=O)N1CCC(CCOc2coc(CN3Cc4ccccc4C3)cc2=O)CC1` [Compound 197, tert-Butyl 4-(2-((6-(isoindolin-2-ylmethyl)-4-oxo-4H-pyran-3-yl)oxy)ethyl)-piperidine-1-carboxylate], the figure is 301 to 2000 nM; as for `CS(=O)(=O)C1CCC(COc2coc(CN3Cc4ccccc4C3)cc2=O)CC1` (stereo not shown) [Compound 220, 2-(Isoindolin-2-ylmethyl)-5-((4-(methylsulfonyl)cyclohexyl)methoxy)-4H-pyran-4-one], 150 to 300 nM; as for `CCS(=N)(=O)c1ccc(COc2coc(CN3Cc4ccccc4C3)cc2=O)cc1` (stereo not shown) [Compound 101, 5-((4-(Ethylsulfonimidoyl)benzyl)oxy)-2-(isoindolin-2-ylmethyl)-4H-pyran-4-one], 150 to 300 nM. `C[C@@H]1c2ccccc2CN1Cc1cc(=O)c(OCc2ccc(C(=O)N(C)C)cc2)co1` [Compound 133, (R)—N,N-Dimethyl-4-(((6-((1-methylisoindolin-2-yl)methyl)-4-oxo-4H-pyran-3-yl)oxy)methyl)benzamide]: the IC50 fell in the range of 301 to 2000 nM. Under `O=c1cc(CN2Cc3ccccc3C2)occ1OCc1ccc(S(=O)(=O)C2CC2)cc1` [Compound 72, 5-((4-(Cyclopropylsulfonyl)benzyl)oxy)-2-(isoindolin-2-ylmethyl)-4H-pyran-4-one] stands under 150 nM; under `C[S@@](=N)(=O)c1ccc(COc2coc(CN3Cc4ccc(C(F)(F)F)cc4C3)cc2=O)cc1` [Compound 286, 5-((4-(R-Methylsulfonimidoyl)-benzyl)oxy)-2-((5-(trifluoromethyl)isoindolin-2-yl)methyl)-4H-pyran-4-one], under 150 nM; under `CN(C)C(=O)Cc1ccc(COc2coc(CN3Cc4ccccc4C3)cc2=O)cc1` [Compound 136, 2-(4-(((6-(Isoindolin-2-ylmethyl)-4-oxo-4H-pyran-3-yl)oxy)methyl)phenyl)-N,N-dimethylacetamide], 150 to 300 nM. As to `N=S1(=O)CCC(COc2coc(CN3Cc4ccccc4C3)cc2=O)CC1` (stereo not shown) [Compound 242, 5-((1-Imino-1-oxidohexahydro-1λ^6-thiopyran-4-yl)methoxy)-2-(isoindolin-2-ylmethyl)-4H-pyran-4-one], the IC50 was in the range of 301 to 2000 nM. On to `CC(C)(O)Cc1ccc(COc2coc(CN3CCc4ccccc4C3)cc2=O)cc1` [Compound 46, 2-((3,4-Dihydroisoquinolin-2(1H)-yl)methyl)-5-((4-(2-hydroxy-2-methyl-propyl)benzyl)oxy)-4H-pyran-4-one], for which the IC50 lay within 150 to 300 nM. `CN(C)C(=O)c1cc(F)c(COc2coc(CN3Cc4ccccc4C3)cc2=O)c(F)c1` [Compound 172, 3,5-Difluoro-4-(((6-(isoindolin-2-ylmethyl)-4-oxo-4H-pyran-3-yl)oxy)methyl)-N,N-dimethylbenzamide]: the IC50 was under 150 nM. Take `CCS(=O)(=O)N1CCC(C)(COc2coc(CN3Cc4ccccc4C3)cc2=O)CC1` [Compound 192, 5-((1-(Ethylsulfonyl)-4-methylpiperidin-4-yl)methoxy)-2-(isoindolin-2-ylmethyl)-4H-pyran-4-one]: the IC50 is under 150 nM. As to `O=c1cc(CN2Cc3ccccc3C2)occ1OCC1CCCCC1` [Compound 65, 5-(Cyclohexylmethoxy)-2-(isoindolin-2-ylmethyl)-4H-pyran-4-one], the IC50 was under 150 nM. Consider `O=c1cc(CN2Cc3ccccc3C2)occ1OCC1CCN(S(=O)(=O)N2CCCC2)CC1` [Compound 267, 2-(Isoindolin-2-ylmethyl)-5-((1-(pyrrolidin-1-ylsulfonyl)piperidin-4-yl)methoxy)-4H-pyran-4-one], for which the IC50 lay in the range of 150 to 300 nM. As to `CS(=O)(=O)N1CCC(CCCOc2coc(CN3Cc4ccccc4C3)cc2=O)CC1` [Compound 213, 2-(Isoindolin-2-ylmethyl)-5-(3-(1-(methylsulfonyl)piperidin-4-yl)propoxy)-4H-pyran-4-one], the IC50 was under 150 nM. `COc1cc(COc2coc(CN3Cc4ccccc4C3)cc2=O)ccn1` [Compound 110, 2-(Isoindolin-2-ylmethyl)-5-((2-methoxypyridin-4-yl)methoxy)-4H-pyran-4-one]: the IC50 was in the range of 301 to 2000 nM.

As for `CCS(=O)(=O)c1ccc(COc2coc(CN3Cc4ccccc4C3)cc2=O)cc1` [Compound 24, 5-((4-(Ethylsulfonyl)benzyl)oxy)-2-(isoindolin-2-ylmethyl)-4H-pyran-4-one], the IC50 lay within 150 to 300 nM. Consider `O=C(c1ccc(COc2coc(CN3Cc4ccccc4C3)cc2=O)cc1)N1CCC1` [Compound 129, 5-((4-(Azetidine-1-carbonyl)benzyl)oxy)-2-(isoindolin-2-ylmethyl)-4H-pyran-4-one], for which the IC50 was under 150 nM. As to `CS(=O)(=O)N1CCC(COc2coc(CN3Cc4ccc(C#N)cc4C3)cc2=O)CC1` [Compound 245a, 2-((5-((1-(methylsulfonyl)piperidin-4-yl)methoxy)-4-oxo-4H-pyran-2-yl)methyl)-isoindoline-5-carbonitrile], the IC50 lay in the range of 301 to 2000 nM. For the compound `C=C(C)c1ccc(COc2coc(CN3Cc4ccccc4C3)cc2=O)cc1` [Compound 47], the IC50 was under 150 nM.
